Source: the NIST ThermoML archive (doi:10.1021/je034097r)
± gives the expanded uncertainty stated by the source.

Conditions: Capillary rise

COC [dimethyl ether]
Conditions | surface tension liquid-gas [mN/m]
213.12 K | 24.52 ± 0.31
223.11 K | 22.95 ± 0.31
228.19 K | 22.26 ± 0.31
233.31 K | 21.44 ± 0.31
238.15 K | 20.75 ± 0.3
243.12 K | 19.81 ± 0.3
248.12 K | 19.3 ± 0.3
253.09 K | 18.54 ± 0.3
258.11 K | 17.71 ± 0.3
263.12 K | 16.99 ± 0.3
268.08 K | 16.27 ± 0.3
273.08 K | 15.43 ± 0.3
278.06 K | 14.6 ± 0.3
283.07 K | 13.97 ± 0.3
288.04 K | 13.16 ± 0.3
293.09 K | 12.66 ± 0.3
298.08 K | 11.73 ± 0.3
303.2 K | 11 ± 0.3
308.12 K | 10.22 ± 0.3
313.12 K | 9.557 ± 0.3
318.18 K | 9.089 ± 0.3
323.18 K | 8.428 ± 0.3
328.14 K | 7.64 ± 0.3
333.14 K | 7.045 ± 0.3
338.09 K | 6.368 ± 0.3
343.13 K | 5.717 ± 0.3
348.07 K | 5.148 ± 0.3
353.11 K | 4.435 ± 0.3
358.11 K | 3.94 ± 0.3
363.1 K | 3.315 ± 0.3
368.04 K | 2.779 ± 0.3
